Drawing on ChEMBL document CHEMBL3785088, “Synthesis, anti-inflammatory, analgesic and COX-1/2 inhibition activities of anilides based on 5,5-diphenylimidazolidine-2,4-dione scaffold: Molecular docking studies” (Eur J Med Chem, 2016), this text covers IC50 and ED50 for 24 compounds.

pIC50: −log10 of the molar value.

The first experiment concerns the target T1, Prostaglandin G/H synthase 1 (Ovis aries, UniProt P05979).
T1 sequence (P05979 whole entry): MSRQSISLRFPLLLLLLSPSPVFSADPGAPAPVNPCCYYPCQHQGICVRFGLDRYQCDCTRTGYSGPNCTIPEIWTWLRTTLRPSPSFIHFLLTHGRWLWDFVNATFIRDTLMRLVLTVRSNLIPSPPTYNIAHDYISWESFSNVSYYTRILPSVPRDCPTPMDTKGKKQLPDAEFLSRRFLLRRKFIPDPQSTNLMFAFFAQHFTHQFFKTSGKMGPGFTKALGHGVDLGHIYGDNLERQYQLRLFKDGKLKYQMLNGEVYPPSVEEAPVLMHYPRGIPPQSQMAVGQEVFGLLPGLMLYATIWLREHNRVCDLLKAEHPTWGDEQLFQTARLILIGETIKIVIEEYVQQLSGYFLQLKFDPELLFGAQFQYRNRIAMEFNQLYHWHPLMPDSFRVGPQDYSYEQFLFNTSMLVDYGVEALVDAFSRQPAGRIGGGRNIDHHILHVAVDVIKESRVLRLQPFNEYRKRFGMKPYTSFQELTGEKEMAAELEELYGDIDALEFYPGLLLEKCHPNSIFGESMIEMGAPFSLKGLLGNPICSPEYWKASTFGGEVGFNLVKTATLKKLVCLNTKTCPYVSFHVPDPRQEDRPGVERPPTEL
Briefly: Inhibition of ovine COX1 preincubated for 5 mins followed by addition of arachidonic acid as substrate measured after 2 mins by enzyme immunoassay.
Settings: not given
On to `COc1ccc(NC(=O)CN2C(=O)NC(c3ccccc3)(c3ccccc3)C2=O)cc1`, for which the pIC50 is less than 4.00.

`O=C(CN1C(=O)NC(c2ccccc2)(c2ccccc2)C1=O)NCc1ccc(F)cc1` gave a negative logarithm of the IC50 (pIC50) of less than 4.00.

`COc1ccc(CNC(=O)CN2C(=O)NC(c3ccccc3)(c3ccccc3)C2=O)cc1` had a pIC50 of less than 4.00.

Consider `NS(=O)(=O)c1ccc(NC(=O)CCN2C(=O)NC(c3ccccc3)(c3ccccc3)C2=O)cc1`, for which the negative-log IC50 (pIC50) is less than 4.00.

In the case of `O=C(CCN1C(=O)NC(c2ccccc2)(c2ccccc2)C1=O)Nc1ccc(F)cc1`, the negative-log IC50 (pIC50) was less than 4.00.

Compound `NS(=O)(=O)c1ccc(NC(=O)CN2C(=O)NC(c3ccccc3)(c3ccccc3)C2=O)cc1` showed a negative-log IC50 (pIC50) of less than 4.00.

Compound `O=C(CN1C(=O)NC(c2ccccc2)(c2ccccc2)C1=O)c1ccc(F)cc1` had a pIC50 of 4.15.

Consider `COc1ccc(C(=O)CN2C(=O)NC(c3ccccc3)(c3ccccc3)C2=O)cc1`, for which the pIC50 was 4.15.

`COc1ccc(NC(=O)CCN2C(=O)NC(c3ccccc3)(c3ccccc3)C2=O)cc1` had a pIC50 of less than 4.00.

As for `NS(=O)(=O)c1ccc(CNC(=O)CN2C(=O)NC(c3ccccc3)(c3ccccc3)C2=O)cc1`, the pIC50 was less than 4.00.

`COc1ccc(CNC(=O)CCN2C(=O)NC(c3ccccc3)(c3ccccc3)C2=O)cc1` showed a pIC50 of less than 4.00.

Compound `COc1cc(CNC(=O)CN2C(=O)NC(c3ccccc3)(c3ccccc3)C2=O)cc(OC)c1OC` had a pIC50 of less than 4.00.

`O=C(CN1C(=O)NC(c2ccccc2)(c2ccccc2)C1=O)Nc1ccc(F)cc1` gave a pIC50 of less than 4.00.

As to `O=C(CCN1C(=O)NC(c2ccccc2)(c2ccccc2)C1=O)NCc1ccc(F)cc1`, the pIC50 is less than 4.00.

The next experiment relates to Rattus norvegicus. Briefly: Antiinflammatory activity in ip dosed Sprague-Dawley rat assessed as inhibition of carrageenan-induced foot paw edema measured 2 hrs post carrageenan challenge by plethysmometry. The experiment is classed as functional.
Settings: not given
On to `COc1ccc(NC(=O)CN2C(=O)NC(c3ccccc3)(c3ccccc3)C2=O)cc1`, for which the ED50 amounted to 120 mg/kg.

Take `O=C(CN1C(=O)NC(c2ccccc2)(c2ccccc2)C1=O)NCc1ccc(F)cc1`: the ED50 was found to be 120 mg/kg.

As to `O=C(CN1C(=O)NC(c2ccccc2)(c2ccccc2)C1=O)NCc1ccccc1`, the median effective dose (ED50) is greater than 200 mg/kg.

With `COc1ccc(CNC(=O)CN2C(=O)NC(c3ccccc3)(c3ccccc3)C2=O)cc1`, the ED50 is 109 mg/kg.

`NS(=O)(=O)c1ccc(NC(=O)CCN2C(=O)NC(c3ccccc3)(c3ccccc3)C2=O)cc1`: the median effective dose (ED50) came out at 75 mg/kg.

`O=C(CCN1C(=O)NC(c2ccccc2)(c2ccccc2)C1=O)Nc1ccc(F)cc1`: the ED50 turned out to be 123 mg/kg.

In the case of `NS(=O)(=O)c1ccc(NC(=O)CN2C(=O)NC(c3ccccc3)(c3ccccc3)C2=O)cc1`, the ED50 came out at 97 mg/kg.

Take `O=C(CN1C(=O)NC(c2ccccc2)(c2ccccc2)C1=O)c1ccc(F)cc1`: the ED50 was 156 mg/kg.

Regarding `COc1ccc(/C=N/NC(=O)CN2C(=O)NC(c3ccccc3)(c3ccccc3)C2=O)cc1`, the 50% effective dose (ED50) was greater than 200 mg/kg.

On to `COc1ccc(/C=N/N2C(=O)NC(c3ccccc3)(c3ccccc3)C2=O)cc1`, for which the 50% effective dose (ED50) is greater than 200 mg/kg.

For the compound `COc1ccc(C(=O)CN2C(=O)NC(c3ccccc3)(c3ccccc3)C2=O)cc1`, the median effective dose (ED50) came to 155 mg/kg.

Turning to `O=C(CCN1C(=O)NC(c2ccccc2)(c2ccccc2)C1=O)NCc1ccccc1`, the ED50 is greater than 200 mg/kg.

Regarding `O=C(CN1C(=O)NC(c2ccccc2)(c2ccccc2)C1=O)N/N=C/c1ccccc1`, the ED50 was greater than 200 mg/kg.

On to `O=C(CN1C(=O)NC(c2ccccc2)(c2ccccc2)C1=O)Nc1ccccc1`, for which the 50% effective dose (ED50) is greater than 200 mg/kg.

For `O=C(CCN1C(=O)NC(c2ccccc2)(c2ccccc2)C1=O)Nc1ccccc1`, the ED50 is greater than 200 mg/kg.

Regarding `COc1ccc(NC(=O)CCN2C(=O)NC(c3ccccc3)(c3ccccc3)C2=O)cc1`, the ED50 amounted to 98 mg/kg.

Turning to `NS(=O)(=O)c1ccc(CNC(=O)CN2C(=O)NC(c3ccccc3)(c3ccccc3)C2=O)cc1`, the median effective dose (ED50) was determined as 75 mg/kg.

`COc1ccc(CNC(=O)CCN2C(=O)NC(c3ccccc3)(c3ccccc3)C2=O)cc1`: the ED50 amounted to 112 mg/kg.

Regarding `O=C(CN1C(=O)NC(c2ccccc2)(c2ccccc2)C1=O)N/N=C/c1ccc(F)cc1`, the ED50 is greater than 200 mg/kg.

As to `COc1cc(CNC(=O)CN2C(=O)NC(c3ccccc3)(c3ccccc3)C2=O)cc(OC)c1OC`, the ED50 worked out at 90 mg/kg.

In the case of `O=C(CN1C(=O)NC(c2ccccc2)(c2ccccc2)C1=O)Nc1ccc(F)cc1`, the median effective dose (ED50) came out at 129 mg/kg.

In the case of `O=C(CCN1C(=O)NC(c2ccccc2)(c2ccccc2)C1=O)NCc1ccc(F)cc1`, the ED50 came to 122 mg/kg.

Consider `O=C(CN1C(=O)NC(c2ccccc2)(c2ccccc2)C1=O)c1ccccc1`, for which the ED50 was greater than 200 mg/kg.

As for `Cc1ccc(-c2cc(C(F)(F)F)nn2-c2ccc(S(N)(=O)=O)cc2)cc1` [CELECOXIB], the median effective dose (ED50) turned out to be 86.4 mg/kg.

In a further experiment the test system is Mus musculus. Briefly: Analgesic activity in ip dosed albino Swiss mouse assessed as reduction in licking and blowing response at 58 deg C measured after 60 mins by hot plate test. The experiment is classed as functional. As to conditions: 1 h. A general note: In hot-plate and tail-flick tests a longer latency is read as antinociception.
Consider `COc1ccc(NC(=O)CN2C(=O)NC(c3ccccc3)(c3ccccc3)C2=O)cc1`, for which the ED50 stood at 86 mg/kg.

Turning to `O=C(CN1C(=O)NC(c2ccccc2)(c2ccccc2)C1=O)NCc1ccc(F)cc1`, the median effective dose (ED50) worked out at 90.9 mg/kg.

Regarding `COc1ccc(CNC(=O)CN2C(=O)NC(c3ccccc3)(c3ccccc3)C2=O)cc1`, the ED50 was 67.3 mg/kg.

With `NS(=O)(=O)c1ccc(NC(=O)CCN2C(=O)NC(c3ccccc3)(c3ccccc3)C2=O)cc1`, the 50% effective dose (ED50) amounted to 40.3 mg/kg.

For `O=C(CCN1C(=O)NC(c2ccccc2)(c2ccccc2)C1=O)Nc1ccc(F)cc1`, the ED50 is 80.1 mg/kg.

As for `NS(=O)(=O)c1ccc(NC(=O)CN2C(=O)NC(c3ccccc3)(c3ccccc3)C2=O)cc1`, the ED50 came out at 66.2 mg/kg.

For `O=C(CN1C(=O)NC(c2ccccc2)(c2ccccc2)C1=O)c1ccc(F)cc1`, the ED50 is 142 mg/kg.

Consider `COc1ccc(C(=O)CN2C(=O)NC(c3ccccc3)(c3ccccc3)C2=O)cc1`, for which the ED50 was 184 mg/kg.

As to `COc1ccc(NC(=O)CCN2C(=O)NC(c3ccccc3)(c3ccccc3)C2=O)cc1`, the ED50 turned out to be 71.1 mg/kg.

Take `NS(=O)(=O)c1ccc(CNC(=O)CN2C(=O)NC(c3ccccc3)(c3ccccc3)C2=O)cc1`: the median effective dose (ED50) came out at 54.6 mg/kg.

On to `COc1ccc(CNC(=O)CCN2C(=O)NC(c3ccccc3)(c3ccccc3)C2=O)cc1`, for which the 50% effective dose (ED50) stood at 122 mg/kg.

For the compound `COc1cc(CNC(=O)CN2C(=O)NC(c3ccccc3)(c3ccccc3)C2=O)cc(OC)c1OC`, the ED50 was found to be 68.5 mg/kg.

Turning to `O=C(CN1C(=O)NC(c2ccccc2)(c2ccccc2)C1=O)Nc1ccc(F)cc1`, the 50% effective dose (ED50) turned out to be 119 mg/kg.

With `O=C(CCN1C(=O)NC(c2ccccc2)(c2ccccc2)C1=O)NCc1ccc(F)cc1`, the ED50 was found to be 75 mg/kg.

On to `Cc1ccc(-c2cc(C(F)(F)F)nn2-c2ccc(S(N)(=O)=O)cc2)cc1` [CELECOXIB], for which the ED50 amounted to 74.1 mg/kg.

Broadly, the pIC50 is the IC50 on a negative log10 scale, so that one unit is a factor of ten. The low end stands for a high IC50, the high end for a low IC50. What is called ED50 is the dose at which the effect has come halfway, by size or by number of responders.
